According to patent publication US11723908B2, “Quinazoline derivatives as antitumor agents” (SUZHOU ZANRONG PHARMA LIMITED, priority 2018, dated 2023):
Where two headings read alike, the source gives them in different places.

What was measured:
[1] = Mouse SOA study for brain penetration; assay type: in vivo; details: for Kp: male, balb/c, mouse, brain, po, 10 mg/kg, read-out: Mouse Kpu, u; for brain penetration in vivo: mouse SOA study, conclusion from Table 3; for Mouse Kpu, u: male balb/c mice, oral 10 mg/kg, AUC 0-7 hr brain/plasma, unbound
Procedure: Assay e) Mouse SOA Study for Brain Penetration
Six non-fasted male balb/c mice (6-8 weeks, 20-25 g) were orally administered at 10 mg/kg, using a suspension formulation of 1% methylcellulose (MC) in deionized water. Brain and blood samples were collected at 0.25, 0.5, 1, 2, 4, 7 hours after dose. Plasma was obtained by centrifuging the blood samples for 5 min at 4000 g and 4° C. Brain tissue was homogenized following addition of four times the volume of phosphate-buffered saline (pH 7.4). Quantification of the compound in plasma and brain was undertaken by LC-MS/MS. Area under the curve (AUC) was determined from 0 to 7 hours in the brain tissue and plasma.
Total brain to plasma concentration ratio Kp was determined using the equation: Brain Kp=AUC0-7 hr brain/AUC0-7 hr plasma
Unbound brain to plasma ratio was determined using the equation: Brain Kp,uu=Kp*fu,brain/fu,plasma
Unbound fraction (fu, plasma) and unbound fraction (fu, brain) were obtained from in vitro equilibrium dialysis by using plasma and brain homogenate, respectively.

[2] = target: hERG channel (Homo sapiens (Human), UniProt Q12809); test: hERG inhibition, manual patch clamp in HEK 293 cells; assay type: cell-based; details: for IC50: HEK 293 cell line stably expressing hERG channel, manual patch clamp; for hERG liability: conclusion from Table 3
Procedure: Assay f): hERG Inhibition Inhibition of hERG channel was conducted in HEK 293 cell line stably expressing hERG channel by manual patch clamp.

[3] = target: BCRP (Homo sapiens (Human), UniProt Q9UNQ0); test: Caco-2 BCRP assessment; assay type: in vitro ADME; details: for BCRP ER: Caco-2 cells, 1 μM, efflux ratio -/+ novobiocin 30 μM, >2 = BCRP substrate; for BCRP substrate status: conclusion from Table 3
Procedure: Assay d): Caco-2 BCRP Assessment
Caco-2 cells were used to study efflux transport mediated by BCRP. Rate of drug transport by BCRP was determined in the presence and absence of novobiocin, a strong inhibitor of BCRP, which was added to both apical and basolateral compartment sat a final concentration of 30 μM. The final concentrations of test compounds and control compound were at 1 μM. The multi-well insert plate was incubated at 37° C. for 2 hours. Efflux ratio (−inhibitor/+inhibitor)>2 was considered to be a BCRP substrate.

[4] = target: P-glycoprotein (Pgp) (Homo sapiens (Human), UniProt P08183); test: MDCK-MDR1 Pgp assessment; assay type: in vitro ADME; details: for Pgp substrate status: conclusion from Table 3; for efflux ratio at 2 h, 1 μM: dog, MDCK-MDR1 cells, 37° C. for 2 hours, read-out: PgpER
Procedure: Assay c): MDCK-MDR1 Pgp Assessment
Efflux transport mediated by P-glycoprotein (Pgp) was assessed by MDCK-MDR1 cells. The final concentrations of test compounds and control compound were at 1 μM. The multi-well insert plate was incubated at 37° C. for 2 hours.

[5] = target: wt-EGFR (Homo sapiens (Human), UniProt P00533); test: NCI H838 cellular assay (wt-EGFR inhibition), phospho-EGFR ELISA; assay type: cell-based
Procedure: Assay b) NCI H838 Cellular Assay (Wt-EGFR Inhibition) Inhibition of phosphor wt-EGFR was determined by enzyme-linked immunosorbent assay (ELISA) in NCI H838 cells (ATCC, catalog number CRL-5844). Human Phospho-EGFR DuoSet IC ELISA kit was purchased from R&D systems (catalog number DYC1095). Day 1: When the cells reach 70-90% confluence, cells were trypsinized and re-suspended. 5000 cells per well were seeded to a 384-well plate. The plate was incubated at 37° C. with 5% CO2 for 24 hours. Day 2: Cell culture medium was replaced with 40 μL FBS-Free RPMI1640. After 2 hours of starvation, the 384-well plate was dosed with 40 nL of compounds by Echo from source plate and the 384-well plate was incubated at 37° C. with 5% CO2 for 2 hours. After 2 hours of incubation with compounds, EGF (final concentration at 100 ng/ml) was added to the plate which was incubated at 37° C. with 5% CO2 for 5-10 minutes. Medium was discarded from the plate and 30 μl/well lysis buffer was added to the plate which was incubated at 4° C. for 10 minutes. The cell lysates can be stored at −80° C. in cell plates but must be thawed at room temperature for at least 30 minutes prior to use and continuing the assay. ELISA plate was coated by diluting capture antibody to 4 μg/ml with PBS, and 25 μl/well was dispensed to 384 well UltraCruz® ELISA Plate, which was incubated at 4° C. overnight. Day 3: After the plates were washed three times with 100 μl/well of wash buffer, the plates were blocked by adding 75 μl of Block Buffer to each well and incubated at room temperature for 3 hours. After the plates were washed three times with 100 μl/well of wash buffer, 20 μl cell lysate was transferred to the blocked ELISA plate which was incubated for 2 hours at room temperature. After the plates were washed three times with 100 μl/well of wash buffer, 25 μl/well detection antibody (dilute 1 in 900 in assay buffer) was added the plate which was incubated for 2 hours, protected from light. After washed three times, 25 μl/well TMB substrate was added to the ELISA plate which was incubated for about 10-15 min, protected from light before addition of 25 μl/well stop solution. Absorbance was read at 450 nm and 570 nm within 30 minutes.

[6] = target: HER2 (Homo sapiens (Human), UniProt P04626); test: BT474 cellular assay (HER2 inhibition), phospho-HER2 ELISA; assay type: cell-based; details: inhibition of phosphor HER2, BT474 cells, 2 hours compound incubation
In short: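 BT474 cells seeded and grown 24 h, then exposed to compound for 2 h at 37 °C and lysed. Lysates assayed for phospho-HER2 by sandwich ELISA with TMB detection, absorbance read at 450 and 570 nm; IC50 values derived.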

[7] = system: Pgp; details: literature statement; cited from earlier work
[8] = literature values; cited from earlier work

BCRP, sequence (Q9UNQ0 whole entry): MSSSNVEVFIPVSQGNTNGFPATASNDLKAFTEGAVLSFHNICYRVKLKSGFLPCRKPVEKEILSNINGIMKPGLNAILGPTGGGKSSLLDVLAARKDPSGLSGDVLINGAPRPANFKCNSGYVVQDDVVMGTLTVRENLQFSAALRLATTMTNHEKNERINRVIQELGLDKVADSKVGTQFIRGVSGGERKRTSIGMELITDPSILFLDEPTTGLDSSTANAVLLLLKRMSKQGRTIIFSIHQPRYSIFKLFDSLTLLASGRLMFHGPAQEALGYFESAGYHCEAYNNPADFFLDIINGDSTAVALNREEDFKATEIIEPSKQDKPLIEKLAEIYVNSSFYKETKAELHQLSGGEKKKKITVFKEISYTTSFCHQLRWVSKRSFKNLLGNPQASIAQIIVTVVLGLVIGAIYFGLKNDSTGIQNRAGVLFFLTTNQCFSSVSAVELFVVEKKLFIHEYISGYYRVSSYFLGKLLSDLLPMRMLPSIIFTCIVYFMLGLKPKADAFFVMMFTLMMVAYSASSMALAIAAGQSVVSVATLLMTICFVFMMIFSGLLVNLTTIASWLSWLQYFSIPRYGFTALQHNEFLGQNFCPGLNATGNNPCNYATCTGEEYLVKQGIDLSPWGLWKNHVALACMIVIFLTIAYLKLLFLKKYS
wt-EGFR, sequence (P00533 25-1210): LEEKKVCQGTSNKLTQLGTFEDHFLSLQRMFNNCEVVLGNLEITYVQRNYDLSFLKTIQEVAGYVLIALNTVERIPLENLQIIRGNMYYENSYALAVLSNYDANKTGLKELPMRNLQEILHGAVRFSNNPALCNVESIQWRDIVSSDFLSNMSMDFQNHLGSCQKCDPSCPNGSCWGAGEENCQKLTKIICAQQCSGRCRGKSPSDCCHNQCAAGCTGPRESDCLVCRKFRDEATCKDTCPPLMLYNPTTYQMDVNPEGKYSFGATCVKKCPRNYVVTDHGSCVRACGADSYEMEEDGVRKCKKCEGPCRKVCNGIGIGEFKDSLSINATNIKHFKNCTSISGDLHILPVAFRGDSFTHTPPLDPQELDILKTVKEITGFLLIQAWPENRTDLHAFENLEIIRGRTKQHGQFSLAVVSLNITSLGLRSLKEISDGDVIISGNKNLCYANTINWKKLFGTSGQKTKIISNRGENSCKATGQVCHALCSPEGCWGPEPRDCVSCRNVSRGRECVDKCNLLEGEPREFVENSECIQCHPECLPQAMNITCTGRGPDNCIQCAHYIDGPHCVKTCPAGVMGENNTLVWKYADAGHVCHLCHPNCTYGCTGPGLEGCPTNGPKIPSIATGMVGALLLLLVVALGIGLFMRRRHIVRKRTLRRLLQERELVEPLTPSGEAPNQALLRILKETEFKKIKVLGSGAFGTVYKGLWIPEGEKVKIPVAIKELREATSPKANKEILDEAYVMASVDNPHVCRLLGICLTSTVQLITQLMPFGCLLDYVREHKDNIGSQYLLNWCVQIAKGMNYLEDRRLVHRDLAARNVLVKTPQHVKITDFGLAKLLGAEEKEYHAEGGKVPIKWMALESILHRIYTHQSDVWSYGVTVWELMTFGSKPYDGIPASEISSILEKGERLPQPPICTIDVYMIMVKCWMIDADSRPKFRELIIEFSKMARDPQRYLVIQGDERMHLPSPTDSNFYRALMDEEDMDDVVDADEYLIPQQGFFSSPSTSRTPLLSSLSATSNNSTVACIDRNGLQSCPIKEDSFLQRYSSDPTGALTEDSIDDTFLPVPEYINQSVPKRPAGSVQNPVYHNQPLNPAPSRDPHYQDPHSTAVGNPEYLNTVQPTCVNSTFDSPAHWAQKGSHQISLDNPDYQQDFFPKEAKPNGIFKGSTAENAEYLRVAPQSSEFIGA
P-glycoprotein (Pgp), sequence (P08183 whole entry): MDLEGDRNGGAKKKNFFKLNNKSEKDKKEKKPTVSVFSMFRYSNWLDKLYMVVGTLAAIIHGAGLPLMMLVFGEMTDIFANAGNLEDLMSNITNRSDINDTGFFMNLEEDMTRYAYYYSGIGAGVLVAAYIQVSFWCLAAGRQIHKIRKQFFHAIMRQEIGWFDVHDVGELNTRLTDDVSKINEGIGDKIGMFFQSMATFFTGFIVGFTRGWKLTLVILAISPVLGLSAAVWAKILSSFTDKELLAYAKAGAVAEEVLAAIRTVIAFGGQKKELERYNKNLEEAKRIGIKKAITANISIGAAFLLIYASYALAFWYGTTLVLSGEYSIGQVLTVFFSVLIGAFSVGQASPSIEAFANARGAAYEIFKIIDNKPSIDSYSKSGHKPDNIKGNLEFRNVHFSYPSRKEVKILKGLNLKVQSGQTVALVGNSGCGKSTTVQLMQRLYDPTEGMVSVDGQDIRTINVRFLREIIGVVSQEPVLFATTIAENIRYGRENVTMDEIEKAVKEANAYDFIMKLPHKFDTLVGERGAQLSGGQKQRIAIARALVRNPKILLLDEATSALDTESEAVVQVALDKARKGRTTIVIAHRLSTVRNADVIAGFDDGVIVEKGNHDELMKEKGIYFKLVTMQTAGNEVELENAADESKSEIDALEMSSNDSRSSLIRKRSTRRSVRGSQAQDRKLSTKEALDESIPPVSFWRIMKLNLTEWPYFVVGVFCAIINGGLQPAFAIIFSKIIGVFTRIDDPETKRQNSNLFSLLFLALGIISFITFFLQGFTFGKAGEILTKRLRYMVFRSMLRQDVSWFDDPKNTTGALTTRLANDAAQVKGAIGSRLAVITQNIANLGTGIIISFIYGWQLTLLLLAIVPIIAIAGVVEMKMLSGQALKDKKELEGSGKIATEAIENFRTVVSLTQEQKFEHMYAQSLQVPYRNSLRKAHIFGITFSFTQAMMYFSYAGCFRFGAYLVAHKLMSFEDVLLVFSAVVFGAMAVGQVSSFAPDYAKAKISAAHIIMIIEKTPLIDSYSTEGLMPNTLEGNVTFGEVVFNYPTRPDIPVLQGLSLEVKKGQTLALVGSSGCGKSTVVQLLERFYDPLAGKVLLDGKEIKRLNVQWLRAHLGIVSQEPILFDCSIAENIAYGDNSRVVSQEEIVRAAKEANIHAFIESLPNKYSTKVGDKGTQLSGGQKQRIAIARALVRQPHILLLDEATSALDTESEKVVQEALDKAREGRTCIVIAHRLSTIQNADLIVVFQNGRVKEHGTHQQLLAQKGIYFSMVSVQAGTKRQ
hERG channel, sequence (Q12809 whole entry): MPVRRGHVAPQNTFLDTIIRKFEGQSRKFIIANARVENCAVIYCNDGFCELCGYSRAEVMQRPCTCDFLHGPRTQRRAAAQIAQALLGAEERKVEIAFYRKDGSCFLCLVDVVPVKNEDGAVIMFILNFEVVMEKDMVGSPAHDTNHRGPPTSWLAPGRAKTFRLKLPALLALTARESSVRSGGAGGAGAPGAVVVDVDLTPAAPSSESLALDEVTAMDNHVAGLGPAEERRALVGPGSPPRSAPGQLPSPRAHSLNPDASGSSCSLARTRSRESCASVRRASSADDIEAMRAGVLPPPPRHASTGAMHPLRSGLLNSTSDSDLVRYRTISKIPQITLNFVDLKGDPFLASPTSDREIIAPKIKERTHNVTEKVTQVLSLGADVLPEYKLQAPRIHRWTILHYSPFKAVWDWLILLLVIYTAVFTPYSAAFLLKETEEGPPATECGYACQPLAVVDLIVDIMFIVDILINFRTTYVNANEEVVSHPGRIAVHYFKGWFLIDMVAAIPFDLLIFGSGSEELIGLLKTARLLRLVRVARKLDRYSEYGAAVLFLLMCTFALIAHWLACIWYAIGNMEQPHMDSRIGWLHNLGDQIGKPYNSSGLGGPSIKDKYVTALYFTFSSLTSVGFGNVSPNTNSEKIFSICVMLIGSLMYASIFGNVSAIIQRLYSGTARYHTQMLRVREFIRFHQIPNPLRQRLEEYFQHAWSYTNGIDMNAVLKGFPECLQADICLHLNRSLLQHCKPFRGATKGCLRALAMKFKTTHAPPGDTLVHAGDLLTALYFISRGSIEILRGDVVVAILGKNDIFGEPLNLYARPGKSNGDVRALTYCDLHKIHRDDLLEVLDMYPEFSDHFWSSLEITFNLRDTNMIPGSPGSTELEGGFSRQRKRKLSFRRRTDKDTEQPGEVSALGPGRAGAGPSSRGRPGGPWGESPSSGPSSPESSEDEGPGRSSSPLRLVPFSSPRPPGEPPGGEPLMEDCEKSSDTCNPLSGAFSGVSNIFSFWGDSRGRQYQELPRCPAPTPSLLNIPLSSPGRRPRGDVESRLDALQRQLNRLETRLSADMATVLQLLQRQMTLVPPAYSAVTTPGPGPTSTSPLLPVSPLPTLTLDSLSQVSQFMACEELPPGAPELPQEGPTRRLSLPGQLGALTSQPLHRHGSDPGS

| Kp [1] | brain penetration in vivo [1] | BCRP ER [3] | BCRP substrate status [3] | Pgp substrate status [4] | efflux ratio at 2 h, 1 μM [4] | IC50 [5] | IC50 [6] | IC50 ([5]; inhibition of phosphor wt-EGFR, NCI H838 cells, EGF 100 ng/ml) | Mouse Kpu, u [1] | SMILES | IC50 [2] | hERG liability [2] | Pgp substrate status [7] | brain to blood ratio (Kp) [8] |
| --- | --- | --- | --- | --- | --- | --- | --- | --- | --- | --- | --- | --- | --- | --- |
| 0.26 | brain penetrable | 0.68 | not Pgp or BCRP substrates | not Pgp or BCRP substrates | 1.3 | 12000 nM | 9.5 nM | – | – | COc1ccc2ncnc(Nc3ccc(Oc4cc5ncnn5cn4)c(C)c3)c2c1O[C@@H]1CCN(C)CC1(F)F [Example 31, (R)—N-(4-([1,2,4]triazolo[1,5-c]pyrimidin-7-yloxy)-3-methylphenyl)-5-((3,3-difluoro-1-methylpiperidin-4-yl)oxy)-6-methoxyquinazolin-4-amine] | 18000 nM | do not show hERG liability | – | – |
| 0.24 | brain penetrable | 1.3 | not Pgp or BCRP substrates | not Pgp or BCRP substrates | 0.6 | – | 8 nM | 400 nM | – | COc1ccc2ncnc(Nc3ccc(Oc4cc5ncnn5cn4)c(Cl)c3)c2c1O[C@@H]1CCN(C)CC1(F)F [Example 33, (R)—N-(4-([1,2,4]triazolo[1,5-c]pyrimidin-7-yloxy)-3-chlorophenyl)-5-((3,3-difluoro-1-methylpiperidin-4-yl)oxy)-6-methoxyquinazolin-4-amine] | 13300 nM | do not show hERG liability | – | – |
| 0.19 | brain penetrable | 1.8 | not Pgp or BCRP substrates | not Pgp or BCRP substrates | 0.81 | 440 nM | 11 nM | – | – | [2H]C([2H])([2H])Oc1ccc2ncnc(Nc3ccc(Oc4cc5ncnn5cn4)c(C)c3)c2c1O[C@@H]1CCN(C)CC1(F)F [Example 36, (R)—N-(4-([1,2,4]-triazolo[1,5-c]pyrimidin-7-yloxy)-3-methylphenyl)-5-((3,3-difluoro-1-methylpiperidin-4-yl)oxy)-6-(methoxy-d3)quinazolin-4-amine] | > 10000 nM | do not show hERG liability | – | – |
| – | – | 1.1 | – | – | 0.57 | – | – | – | – | CN1CCC(Oc2cccc3ncnc(Nc4ccc(NCc5ccccn5)c(Cl)c4)c23)CC1 [Reference compound 1, 2-chloro-N^4-(5-((1-methylpiperidin-4-yl)oxy)quinazolin-4-yl)-N^1-(pyridin-2-ylmethyl)benzene-1,4-diamine, reference compound] | < 2000 nM | strong hERG inhibitor | – | – |
| – | not brain penetrable in vivo | 1.4 | – | strong Pgp substrates | > 18.6 | – | – | – | too low to calculate | CCOc1cc2ncc(C#N)c(Nc3ccc(OCc4ccccn4)c(Cl)c3)c2cc1NC(=O)/C=C/CN(C)C [Reference compound 2, Neratinib, reference compound] | > 10000 nM | – | – | – |
| – | not brain penetrable in vivo | 2.1 | – | strong Pgp substrates | 23.8 | – | – | – | too low to calculate | Cc1cc(Nc2ncnc3ccc(NC4=NC(C)(C)CO4)cc23)ccc1Oc1ccn2ncnc2c1 [Reference compound 3, N4-(4-([1,2,4]triazolo[1,5-a]pyridin-7-yloxy)-3-methylphenyl)-N6-(4,4-dimethyl-4,5-dihydrooxazol-2-yl)quinazoline-4,6-diamine, reference compound] | > 10000 nM | – | – | – |
| – | – | – | – | – | – | – | – | – | – | Cc1cc(Nc2ncnc3ccc(NC4=NC(C)(C)CO4)cc23)ccc1Oc1ccn2ncnc2c1 [Tucatinib] | – | – | strong Pgp substrate | 0.02-0.05 |
| – | – | – | – | – | – | – | – | – | – | CN(C)C/C=C/C(=O)Nc1cc2c(Nc3ccc(F)c(Cl)c3)ncnc2cc1O[C@H]1CCOC1 [afatinib] | – | – | strong Pgp substrates | < 0.08 |
| – | – | – | – | – | – | – | – | – | – | CS(=O)(=O)CCNCc1ccc(-c2ccc3ncnc(Nc4ccc(OCc5cccc(F)c5)c(Cl)c4)c3c2)o1 [lapatinib] | – | – | strong Pgp substrates | 0.04 |
| – | – | – | – | – | – | – | – | – | – | CCOc1cc2ncc(C#N)c(Nc3ccc(OCc4ccccn4)c(Cl)c3)c2cc1NC(=O)/C=C/CN(C)C [neratinib] | – | – | strong Pgp substrates | 0.079 |
